# PubChem BioAssay (NCI)
#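 Protocol summary: plate cells (96-well), add compound at 5 concentrations, incubate 48 h, interpolate endpoints linearly. At the TGI there is no net growth.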
# What was measured:
# Assay in all cases: inhibition of tumour cell growth, NCI panel, 48 h
# COLO 205 colon = tested on: COLO 205 colon
# A549 NSCLC = tested on: A549 NSCLC
# SNB-19 CNS = tested on: SNB-19 CNS
# HCT-15 colon = tested on: HCT-15 colon
# MDA-MB-435 = tested on: MDA-MB-435
# MOLT-4 leukemia = tested on: MOLT-4 leukemia
# SK-MEL-5 melanoma = tested on: SK-MEL-5 melanoma
# IGROV1 ovarian = tested on: IGROV1 ovarian
# UACC-62 melanoma = tested on: UACC-62 melanoma
SMILES,TGI (COLO 205 colon),TGI (A549 NSCLC),TGI (SNB-19 CNS),TGI (HCT-15 colon),TGI (MDA-MB-435),TGI (MOLT-4 leukemia),TGI (SK-MEL-5 melanoma),TGI (IGROV1 ovarian),TGI (UACC-62 melanoma)
S=C1C(=Nc2ccccc2)N(c2ccccc2)/C(=N\c2ccccn2)N1c1ccccc1,22.7 µM,38.6 µM,29.9 µM,27.7 µM,28.5 µM,> 100 µM,27.2 µM,26.2 µM,17.1 µM
O=C1OC2(C(F)(F)F)Oc3ccccc3CN2C12CCCCC2 (centres undefined),34.7 µM,> 100 µM,> 100 µM,84.1 µM,> 100 µM,54.3 µM,–,> 100 µM,> 100 µM
Nc1ccc(-c2nc3cc(F)ccc3s2)cc1I,> 100 µM,> 100 µM,54.9 µM,> 66.5 µM,> 100 µM,> 100 µM,> 70.4 µM,22.3 µM,85.8 µM
Cc1cc(=O)n2nc(CSc3nnc(N)s3)sc2n1,> 100 µM,> 100 µM,> 100 µM,> 100 µM,> 100 µM,> 100 µM,> 100 µM,> 100 µM,> 100 µM
CCOC(=O)/C(C#N)=C/c1ccc(CO)o1,> 100 µM,> 100 µM,> 100 µM,> 100 µM,> 100 µM,> 100 µM,> 100 µM,> 100 µM,> 100 µM
NS(=O)(=O)c1ccc(Nc2c3ccccc3nc3c(C(=O)NCCCN(CCO)CCO)cccc23)cc1,30.2 µM,69.2 µM,45.7 µM,> 100 µM,37.2 µM,99 µM,32.4 µM,68.2 µM,57.8 µM
CCCC(CC)c1c(O)c(O)c(C(CC)CCC)c(C(CC)CCC)c1C(CC)CCC (centres undefined),> 10 µM,> 10 µM,> 10 µM,> 10 µM,> 10 µM,–,> 10 µM,> 10 µM,> 10 µM
COC(=O)c1ccccc1C#CCCCOS(C)(=O)=O,> 10 µM,> 10 µM,> 10 µM,> 10 µM,> 10 µM,> 10 µM,> 10 µM,> 10 µM,> 10 µM
CCOC(=O)C1=C(C)C(C(=O)OC)/C(=C/c2cccc3cccnc23)C1=O (centres undefined),> 10 µM,> 10 µM,> 10 µM,> 10 µM,> 10 µM,> 10 µM,> 10 µM,> 10 µM,> 10 µM
O=c1[nH]c2cc3cccnc3c(Cl)c2nc1C(F)(F)F,> 100 µM,> 100 µM,> 100 µM,> 100 µM,> 100 µM,83.2 µM,29.8 µM,> 100 µM,> 100 µM
COc1ccccc1NC(=S)N/N=C(/C)c1ccccn1,–,> 55.3 µM,> 100 µM,> 100 µM,> 100 µM,> 100 µM,–,–,–
C=CCN(c1cc(OCc2ccccc2)c(NC(C)=O)cc1[N+](=O)[O-])S(C)(=O)=O,> 100 µM,> 100 µM,36.1 µM,> 100 µM,> 100 µM,> 100 µM,> 100 µM,45.4 µM,> 100 µM
COc1ccc(C(=C(I)c2ccccc2)c2ccc(OC)cc2)cc1,> 100 µM,> 100 µM,> 100 µM,> 100 µM,> 100 µM,> 100 µM,> 100 µM,> 100 µM,> 100 µM
CCN(CC)C(=S)N/N=C/c1ccccn1,> 53.9 µM,1.39 µM,> 100 µM,> 100 µM,> 100 µM,> 100 µM,0.542 µM,11.7 µM,0.392 µM
CCc1nn(S(=O)(=O)c2ccc(C)cc2)c2c1CS(=O)(=O)CC2,> 100 µM,> 100 µM,> 100 µM,> 100 µM,> 100 µM,> 100 µM,> 100 µM,–,> 100 µM
O=C1C=C2CO[C@H]3OC[C@H](O)[C@@H]1[C@@H]23,30 µM,> 100 µM,> 100 µM,> 100 µM,> 100 µM,> 100 µM,> 100 µM,> 100 µM,> 100 µM
Cc1ccc(C)c(COCCOCn2cc(Br)c(N)nc2=O)c1,> 100 µM,> 100 µM,> 100 µM,> 100 µM,> 100 µM,> 100 µM,–,> 100 µM,> 100 µM
C=C1C(=O)O[C@H]2C/C(C)=C/CC/C(C)=C/CC[C@@](C)(O)[C@@H](I)C[C@@H]12,24.9 µM,24.8 µM,30 µM,20.1 µM,23.2 µM,> 26.2 µM,28.2 µM,10.2 µM,23.9 µM
Cc1cc2ccccc2n1CC(=O)N1CCCC1,> 100 µM,> 100 µM,> 100 µM,> 100 µM,> 100 µM,> 100 µM,> 100 µM,> 100 µM,> 100 µM
Cc1cc(N=Cc2c(CO)cnc(C)c2O)c(N=Cc2c(CO)cnc(C)c2O)cc1C.[Zn],> 100 µM,> 100 µM,> 100 µM,> 100 µM,> 100 µM,> 100 µM,> 100 µM,> 100 µM,> 100 µM
Cc1ccc(-n2c(O)c3c(N)n[nH]c3c(C#N)c2=O)cc1,> 100 µM,> 100 µM,> 100 µM,> 100 µM,> 100 µM,> 100 µM,> 100 µM,> 100 µM,> 100 µM
C=C(CC(=O)Nc1ccc(C(=O)OC)o1)C(=O)OC,41.1 µM,35.8 µM,> 100 µM,59.1 µM,59 µM,47.8 µM,43.1 µM,55.5 µM,72.4 µM
COCN1CCN=c2c1c1c3c(c4ccccc4n23)CCC1,> 100 µM,> 100 µM,> 100 µM,> 100 µM,> 100 µM,> 100 µM,> 100 µM,> 100 µM,> 100 µM
